# Data reported in EP0252482A2, “7-Acyloxy-6-aminoacyloxypolyoxylabdanes, process for their preparation and their use as medicine” (HOECHST AKTIENGESELLSCHAFT, priority 1986, dated 1988).
# Counter-ions that a name gives are not always drawn.
# Assays:
# Katzen = assay: Blood pressure in the anaesthetised cat (femoral artery), i.v. administration; type: in vivo; conditions: Katze, Dosis 3 mg/kg
# Method: 1. Blutdruck an der Katze: Katzen beiderlei Geschlechts von 3 bis 4 kg Gewicht wurden mit Äther narkotisiert und unter Chloralose-Narkose (70 mg/kg, i.v.) gehalten. Sowohl die Oberschenkelarterie als auch -vene wurden zur Aufzeichnung des Blutdrucks und zur Verabreichung von Medikamenten kanüliert. Der Blutdruck in der Oberschenkelarterie wurde über einen Messwandler Statham 23 Db auf einem physiologischen Nihon-Kohden-Registriergerät aufgezeichnet. Die zu prüfende Verbindung wurde in destilliertem Wasser gelöst und intravenös verabreicht, und der Blutdruckabfall und die Dauer der blutdrucksenkenden Wirkung wurden notiert.
# Die mit diesem Modell für typische erfindungsgemäße Verbindungen erhaltenen Resultate sind in der nachfolgenden Tabelle angegeben: […]
# Beagle-Hunde = assay: Blood pressure, heart rate and left ventricular dp/dt in the anaesthetised beagle dog, i.v. administration; type: in vivo; conditions: Hund; for Blutdruckabfall: Natriumpentobarbital; for % Zunahme in dp/dt max: left ventricle
# Method: 2. Blutdruck am Hund: Methode: Beagle-Hunde beiderlei Geschlechts (Gewicht im Bereich 10 bis 15 kg) wurden mit Natriumpentobarbital narkotisiert (35 mg/kg, i.v.). Nach Einführung eines Endotrachealrohrs wurden sowohl die Oberschenkelarterie als auch die -vene zur Aufnahme des Blutdrucks und zur Verabreichung der Verbindung kanüliert. Der Druck im linken Ventrikel wurde mit einem Katheterspitzen-Messwandler (Millar-Kathether) gemessen und über einen Hugo Sachs-Differentiator differenziert. Sämtliche Methoden wurden auf einem Hellige-Schreibgerät mit sechs Kanälen aufgezeichnet. Die Elektrokardiogrammsignale wurden auf einem Becton-Dickinson-Gerät verfolgt.
# Eine einprozentige Lösung der erfindungsgemäßen Verbindung in destilliertem Wasser wurde hergestellt und in verschiedenen Dosierungen intravenös verabreicht.
smiles,measurement,setting,value
"C=CC1(C)CC(=O)C2(O)C(C)(O1)C(OC(=O)CC)C(OC(=O)CN1CCCCC1)C1C(C)(C)CCC(O)C12C (stereo not drawn) [C2H5, 1α,9α-Dihydroxy-8,13-epoxy-6ß-piperidino acetoxy-7ß-propionyloxy-labd-14-en-11-on hydrochlorid]",Blutdruckabfall,Katzen; Chloralose-Narkose,30 mm Hg
same,Dauer,Katzen; duration of hypotensive effect,> 120 min
same,Dauer,Beagle-Hunde; Dosis 0.3 mg/kg,10 min
same,Dauer,Beagle-Hunde; Dosis 1.0 mg/kg,60 min
same,Pulszunahme,Beagle-Hunde; Dosis 1.0 mg/kg,+19 Pulsschläge pro Min.
same,Blutdruckabfall,Beagle-Hunde; Dosis 0.3 mg/kg,10 mm Hg
same,Blutdruckabfall,Beagle-Hunde; Dosis 1.0 mg/kg,46 mm Hg
same,% Zunahme in dp/dt max,Beagle-Hunde; Dosis 0.3 mg/kg,+38%
same,% Zunahme in dp/dt max,Beagle-Hunde; Dosis 1.0 mg/kg,+65%
